{"source": "patent US8945639B2", "about": "“Treatment of inflammatory bowel disease” (Provexis (IBD) Limited, priority 2003, dated 2015)", "molecules": {"B1": {"name": "fetuin: fetuin, glycoconjugate tested at 50 μg/ml (protein, UniProt P12763 19-359, looked up)", "Alpha-2-HS-glycoprotein": "IPLDPVAGYKEPACDDPDTEQAALAAVDYINKHLPRGYKHTLNQIDSVKVWPRRPTGEVYDIEIDTLETTCHVLDPTPLANCSVRQQTQHAVEGDCDIHVLKQDGQFSVLFTKCDSSPDSAEDVRKLCPDCPLLAPLNDSRVVHAVEVALATFNAESNGSYLQLVEISRAQFVPLPVSVSVEFAVAATDCIAKEVVDPTKCNLLAEKQYGFCKGSVIQKALGGEDVRVTCTLFQTQPVIPQPQPDGAEAEAPSAVPDAAGPTPSAAGPPVASVVVGPSVVAVPLPLHRAHYDLRHTFSGVASVESSSGEAFHVGKTPIVGQPSIPGGPVRLCPGRIRYFKI"}, "B2": {"name": "asialofetuin: asialofetuin, glycoconjugate tested at 50 μg/ml (protein, UniProt P12763 19-359, looked up)", "Alpha-2-HS-glycoprotein": "IPLDPVAGYKEPACDDPDTEQAALAAVDYINKHLPRGYKHTLNQIDSVKVWPRRPTGEVYDIEIDTLETTCHVLDPTPLANCSVRQQTQHAVEGDCDIHVLKQDGQFSVLFTKCDSSPDSAEDVRKLCPDCPLLAPLNDSRVVHAVEVALATFNAESNGSYLQLVEISRAQFVPLPVSVSVEFAVAATDCIAKEVVDPTKCNLLAEKQYGFCKGSVIQKALGGEDVRVTCTLFQTQPVIPQPQPDGAEAEAPSAVPDAAGPTPSAAGPPVASVVVGPSVVAVPLPLHRAHYDLRHTFSGVASVESSSGEAFHVGKTPIVGQPSIPGGPVRLCPGRIRYFKI", "modifications": "desialylated", "notes": "asialofetuin, glycoconjugate tested at 50 μg/ml"}}, "data": [{"test_system": "agglutinating mucosally-associated E. coli (haemagglutination of human red blood cells)", "assay": "Haemagglutination assays with different oligosaccharides/fibres (Example 1)", "type": "cell-based", "conditions": "agglutinating E. coli from IBD subjects, 'in all cases', mannose, fucose, galactose 0.4M, fetuin, asialofetuin 50 μg/ml", "protocol": "Blood was taken from a healthy human volunteer and placed into a heparinised container. The blood was washed three times in PBS by centrifugation at 1000 rpm for 5 minutes and by resuspending the pellet in fresh PBS. After the third wash, the pellet was resuspended in PBS so as to give a 1% red blood cell solution. Bacteria identified as E. coli, and 5 strains of CD-ileal associated E. coli were grown so as to obtain maximum fimbrial expression (see above). Bacteria were suspended in saline to give an OD equal to MacFarland standard 5. Doubling dilutions of bacterial suspension were performed in 96 well U-bottomed haemagglutination plates (Dynex technologies) to a final volume of 100 μl per well. 50 μl of 1% rbcs was added to each well. The plate was tapped gently to mix the contents of the wells and was left at room temperature for approximately 2 hrs.\nFurther characterisation of bacterial haemagglutination was carried out using a panel of oligosaccharides/fibers. The structures tested were: mannose (0.4M), fucose (0.4M), galactose (0.4M), fetuin (50 μg/ml), asialofetuin (50 μg/ml), bovine submaxillary mucin (BSM), hydrolysed BSM, ovine submaxilliary mucin (OSM), lactose, lactulose, siayl Tn, GalGalNAc, N-Glycolyneuraminic acid, N-acetylneuraminic acid, 3′-n-acetylneuraminyl-lactose, 6′-n-acetylneuraminyl-lactose, melibiose, plantain, stachyose, milk derived galacto-oligosaccharide, raffinose, pectin, polygalacturonic acid, and paralacto-n-hexaose.\nSoluble fiber (prepared according to 1.1.12.2) and other carbohydrates were tested for their ability to modulate agglutination, attachment and invasion of cells from subjects with IBD.", "values": [{"molecule": "polygalacturonic acid", "inhibition of agglutination": "non-inhibitory"}, {"molecule": "paralacto-n-hexaose", "inhibition of agglutination": "non-inhibitory"}, {"molecule": "CC(=O)N[C@H]1[C@H]([C@H](O)[C@H](O)CO)OC(O)(C(=O)O)C[C@@H]1O", "note": "(stereo partly shown) [N-acetylneuraminic acid]", "inhibition of agglutination": "non-inhibitory"}, {"molecule": "OC[C@H]1O[C@H](OCC2O[C@@H](O)[C@H](O)[C@@H](O)[C@@H]2O)[C@H](O)[C@@H](O)[C@H]1O", "note": "(stereo partly shown) [melibiose]", "inhibition of agglutination": "non-inhibitory"}, {"molecule": "CC(=O)N[C@H]1C(O)O[C@H](CO)[C@H](O)[C@@H]1O[C@@H]1O[C@H](CO)[C@H](O)[C@H](O)[C@H]1O", "note": "(stereo partly shown) [Galβ1-3GalNAc]", "inhibition of agglutination": "non-inhibitory"}, {"molecule": "bovine submaxillary mucin", "inhibition of agglutination": "inhibited"}, {"molecule": "OC[C@H]1O[C@@H](O[C@@H]2[C@@H](CO)OC(O)(CO)[C@H]2O)[C@H](O)[C@@H](O)[C@H]1O", "note": "(mixture of isomers) [lactulose]", "inhibition of agglutination": "non-inhibitory"}, {"molecule": "O=C(CO)N[C@H]1[C@H]([C@H](O)[C@H](O)CO)OC(O)(C(=O)O)C[C@@H]1O", "note": "(stereo partly shown) [N-glycolyneuraminic acid]", "inhibition of agglutination": "non-inhibitory"}, {"molecule": "C[C@H](O)[C@@H](O)[C@@H](O)[C@H](O)C=O", "note": "[fucose]", "inhibition of agglutination": "non-inhibitory"}, {"molecule": "O=C[C@H](O)[C@@H](O)[C@@H](O)[C@H](O)CO", "note": "[galactose]", "inhibition of agglutination": "non-inhibitory"}, {"molecule": "OC[C@H]1O[C@H](OC[C@H]2O[C@H](O[C@]3(CO)O[C@H](CO)[C@@H](O)[C@@H]3O)[C@H](O)[C@@H](O)[C@@H]2O)[C@H](O)[C@@H](O)[C@H]1O", "note": "[raffinose]", "inhibition of agglutination": "non-inhibitory"}, {"molecule": "CC(=O)N[C@H]1[C@H]([C@H](O)[C@H](O)CO)O[C@@](O[C@H]2[C@@H](O)[C@@H](CO)O[C@@H](O[C@H]3[C@H](O)[C@@H](O)C(O)O[C@@H]3CO)[C@@H]2O)(C(=O)O)C[C@@H]1O", "note": "(stereo partly shown) [3′-n-acetylneuraminyl-lactose]", "inhibition of agglutination": "non-inhibitory"}, {"molecule": "OC[C@H]1O[C@H](OC[C@H]2O[C@H](OC[C@H]3O[C@H](O[C@]4(CO)O[C@H](CO)[C@@H](O)[C@@H]4O)[C@H](O)[C@@H](O)[C@@H]3O)[C@H](O)[C@@H](O)[C@H]2O)[C@H](O)[C@@H](O)[C@H]1O", "note": "[stachyose]", "inhibition of agglutination": "non-inhibitory"}, {"molecule": "OC[C@H]1O[C@@H](O[C@H]2[C@H](O)[C@@H](O)C(O)O[C@@H]2CO)[C@H](O)[C@@H](O)[C@H]1O", "note": "(stereo partly shown) [lactose]", "inhibition of agglutination": "non-inhibitory"}, {"molecule": "CC(=O)NC1C(O)CC(OCC2OC(OC3C(CO)OC(O)C(O)C3O)C(O)C(O)C2O)(C(=O)O)OC1C(O)C(O)CO", "note": "(stereo not shown) [6′-n-acetylneuraminyl-lactose]", "inhibition of agglutination": "non-inhibitory"}, {"molecule": "siaylosyl-Tn", "inhibition of agglutination": "non-inhibitory"}, {"molecule": "pectin", "inhibition of agglutination": "non-inhibitory"}, {"molecule": "B1", "inhibition of agglutination": "non-inhibitory"}, {"molecule": "B2", "inhibition of agglutination": "non-inhibitory"}]}]}
